Measured values reported in paper PMC7180572, “5-Alkylamino-N-phenylpyrazine-2-carboxamides: Design, Preparation, and Antimycobacterial Evaluation” (Molecules, 2020).
Values after ≈ are worked out from the molar mass of the structure shown. Where two headings read alike, the source gives them in different places.

Columns and labels:
[1] = tested on: Mycobacterium aurum DSM 43999 (ATCC 23366); assay: Microdilution broth, modified Microplate Alamar Blue Assay, whole cell growth inhibition; assay type: cell-based; settings: Mycolicibacterium aurum; in vitro, Middlebrook 7H9 broth, resazurin; read-out: MIC Mycobacterium aurum
[2] = tested on: Mycobacterium tuberculosis H37Ra ITM-M006710 (ATCC 9431); assay: as above; assay type: cell-based; settings: Mycobacterium tuberculosis, read-out: MIC Mtb H37Ra
HepG2 cells = assay: HepG2 cytotoxicity, CellTiter 96 (MTS) assay; assay type: cell-based, human; settings: for IC50: Homo sapiens, HepG2, 24 h incubation, > means higher concentration not reproducible due to precipitation, read-out: HepG2 IC50
[3] = tested on: Mycobacterium smegmatis DSM 43465 (ATCC 607); assay: Microdilution broth, modified Microplate Alamar Blue Assay, whole cell growth inhibition; assay type: cell-based; settings: Mycolicibacterium smegmatis; in vitro, Middlebrook 7H9 broth, resazurin; read-out: MIC Mycobacterium smegmatis
[4] = tested on: Aspergillus fumigatus ATCC 204305; assay: Antifungal microdilution broth method (EUCAST); assay type: cell-based; settings: ATCC204305, 48 h, standards, read-out: MIC against Aspergillus fumigatus
[5] = tested on: Trichophyton interdigitale ATCC 9533, CCM 8377; assay: Antifungal microdilution broth method (EUCAST); assay type: cell-based; settings: 72 h, standards, read-out: MIC against Trichophyton interdigitale
[6] = tested on: Candida krusei ATCC 6258, CCM 8271; assay: Antifungal microdilution broth method (EUCAST); assay type: cell-based; settings: Pichia kudriavzevii; 48 h, standards; read-out: MIC against C. krusei
[7] = tested on: Aspergillus flavus CCM 8363; assay: Antifungal microdilution broth method (EUCAST); assay type: cell-based; settings: CCM8363, 48 h, standards, read-out: MIC against Aspergillus flavus
[8] = tested on: Candida albicans ATCC 24433, CCM 8320; assay: Antifungal microdilution broth method (EUCAST); assay type: cell-based; settings: 48 h, standards, read-out: MIC against Candida albicans
[9] = tested on: Candida parapsilosis ATCC 22019, CCM 8260; assay: Antifungal microdilution broth method (EUCAST); assay type: cell-based; settings: Lodderomyces parapsilosis; 48 h, standards; read-out: MIC against C. parapsilosis
[10] = tested on: Absidia corymbifera CCM 8077 (Lichtheimia corymbifera); assay: Antifungal microdilution broth method (EUCAST); assay type: cell-based; settings: CCM8077, 48 h, standards, read-out: MIC against Lichtheimia corymbifera
[11] = tested on: Candida tropicalis ATCC 750, CCM 8264; assay: Antifungal microdilution broth method (EUCAST); assay type: cell-based; settings: 48 h, standards, read-out: MIC against C. tropicalis
[12] = in vitro, Middlebrook 7H9 broth, resazurin

Row | SMILES | MIC [1] | MIC [2, 12] | IC50 (HepG2 cells) | MIC [3] | other results
1 | O=C(Nc1ccc(O)cc1)c1cnc(Cl)cn1 [Compound 3, 5-Chloro-N-(4-hydroxyphenyl)pyrazine-2-carboxamide] | ≥ 250 µg/mL | 62.5 µg/mL (≈ 250 µM) | 350 µM | ≥ 250 µg/mL | SI, selectivity index (HepG2 cells; IC50 (HepG2)/MIC against Mtb H37Ra (in µM)): 1.40
2 | Cc1ccc(NC(=O)c2cnc(Cl)cn2)cc1 [Compound 4, 5-Chloro-N-(p-tolyl)pyrazine-2-carboxamide] | ≥ 500 µg/mL | ≥ 500 µg/mL | > 50 µM | ≥ 500 µg/mL | –
3 | CCc1ccc(NC(=O)c2cnc(Cl)cn2)cc1 [Compound 5, 5-Chloro-N-(4-ethylphenyl)pyrazine-2-carboxamide] | ≥ 500 µg/mL | – | > 50 µM | ≥ 500 µg/mL | MIC [2]: 250 µg/mL (≈ 955 µM)
4 | CCCNc1cnc(C(=O)Nc2ccc(Cl)cc2O)cn1 [Compound 6a, N-(4-chloro-2-hydroxyphenyl)-5-(propylamino)pyrazine-2-carboxamide] | ≥ 500 µg/mL | ≥ 500 µg/mL | – | 3.91 µg/mL (≈ 12.7 µM) | melting point: 248.9 to 250 °C
5 | CCCCNc1cnc(C(=O)Nc2ccc(Cl)cc2O)cn1 [Compound 6b, 5-(Butylamino)pyrazine-N-(4-chloro-2-hydroxyphenyl)-2-carboxamide] | ≥ 500 µg/mL | ≥ 500 µg/mL | > 50 µM | 3.91 µg/mL (≈ 12.2 µM) | melting point: 221.8 to 225.4 °C
6 | CO[C@H]1/C=C/O[C@@]2(C)Oc3c(C)c(O)c4c(O)c(c(/C=N/N5CCN(C)CC5)c(O)c4c3C2=O)NC(=O)/C(C)=C\C=C\[C@H](C)[C@H](O)[C@@H](C)[C@@H](O)[C@@H](C)[C@H](OC(C)=O)[C@@H]1C [RIF, rifampicin, reference compound] | 0.39 to 0.78 µg/mL (≈ 0.474 to 0.948 µM) | 0.0039 to 0.0078 µg/mL (≈ 0.00474 to 0.00948 µM) | – | 6.25 to 12.5 µg/mL (≈ 7.59 to 15.2 µM) | –
7 | C[C@@H](c1ncncc1F)[C@](O)(Cn1cncn1)c1ccc(F)cc1F [voriconazole, reference compound] | – | – | – | – | MIC [4]: 1 µg/mL (≈ 2.86 µM); MIC [5]: > 16 µg/mL; MIC [6]: 0.5 µg/mL (≈ 1.43 µM); MIC [7]: > 16 µg/mL; MIC [8]: > 16 µg/mL; MIC [9]: 8 µg/mL (≈ 22.9 µM); MIC [10]: > 16 µg/mL; MIC [11]: > 16 µg/mL
